How the values were obtained:
Masitinib + Foretinib = compound: Cc1ccc(NC(=O)c2ccc(CN3CCN(C)CC3)cc2)cc1Nc1nc(-c2cccnc2)cs1 [Masitinib] + COc1cc2c(Oc3ccc(NC(=O)C4(C(=O)Nc5ccc(F)cc5)CC4)cc3F)ccnc2cc1OCCCN1CCOCC1 [Foretinib] (partner 0.25 µM); experiment: relative viability (nuclei count vs DMSO), 5 days (fraction); higher = more cells survive
Outline: (§1)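 One day after seeding in 1536-well plates, lung cancer cell lines were dosed by pin tool. Dosing was either single-drug or a fixed anchor-drug dose plus five library-drug doses (not always all listed) in √10 steps. After 5 days, nuclei were stained in one fix-and-stain step and counted on 4× images, and relative viability is the nuclei count of treated wells over that of vehicle wells, given as the median of duplicate plates.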

[1] = compound: CC1=CC(=CC=C1)NC2=NC(=CS2)C3=CC=NC=C3 + CC1(C)CCC(c2ccc(Cl)cc2)=C(CN2CCN(c3ccc(C(=O)NS(=O)(=O)c4ccc(N[C@H](CCN5CCOCC5)CSc5ccccc5)c(S(=O)(=O)C(F)(F)F)c4)cc3)CC2)C1 [Navitoclax] (partner 0.5 µM); experiment: as above
Outline: as §1

Cell Line	relative viability (Masitinib + Foretinib; first compound 0.01 µM)	relative viability (Masitinib + Foretinib; first compound 0.03162 µM)	relative viability (Masitinib + Foretinib; first compound 0.1 µM)	relative viability (Masitinib + Foretinib; first compound 0.3162 µM)	relative viability (Masitinib + Foretinib; first compound 1 µM)	relative viability ([1]; first compound 0.253 µM)	relative viability ([1]; first compound 0.8 µM)	relative viability ([1]; first compound 2.53 µM)	relative viability ([1]; first compound 8 µM)	relative viability ([1]; first compound 0.08 µM)
NCI-H2342	1.09	0.875	1.08	1.13	1.01	–	–	–	–	–
NCI-H1793	0.63	0.684	0.973	0.519	0.61	0.521	0.523	0.438	0.402	–
LU99A	0.901	0.823	0.877	1.01	0.822	0.861	0.838	0.835	0.978	–
HCC-366	–	0.933	–	0.961	0.998	1.04	1.04	0.884	0.949	0.934
201T	0.89	1.21	1.02	–	1.11	1.22	1.21	1.26	0.993	1.2
HCC-827	1.03	1.05	1.06	1	1.06	0.937	0.956	1.02	0.935	0.989
NCI-H650	0.978	0.966	1.14	0.977	1.01	–	–	–	–	–
NCI-H2085	0.851	0.91	0.919	1.23	0.878	1.13	1.12	1.12	0.809	0.959
NCI-H596	0.859	0.9	0.947	0.869	0.891	0.943	0.725	0.942	0.643	0.935
SK-LU-1	0.803	0.815	0.95	0.945	0.931	1.22	0.636	1.06	1.35	0.837
A-427	–	1.13	–	1.01	1	0.962	0.899	–	0.875	0.955
NCI-H460	1.02	1.08	1.06	0.864	0.977	1.08	1.08	1.13	1	1.13
NCI-H1734	0.922	0.914	0.898	1.05	0.811	0.834	0.827	0.869	0.698	0.835
NCI-H1915	–	1.13	–	1.1	1.11	0.791	0.84	0.779	0.811	0.747
Calu-6	0.814	0.822	0.931	0.825	0.862	0.685	0.763	0.773	0.711	0.748
SW 1573	0.765	0.974	0.97	0.784	0.865	0.965	0.924	1.1	0.841	0.916
RERF-LC-KJ	0.734	0.883	0.987	0.746	0.797	0.627	0.631	0.638	0.275	0.71

Cell Line	relative viability (Masitinib + Foretinib; first compound 0.01 µM)	relative viability (Masitinib + Foretinib; first compound 0.03162 µM)	relative viability (Masitinib + Foretinib; first compound 0.1 µM)	relative viability (Masitinib + Foretinib; first compound 0.3162 µM)	relative viability (Masitinib + Foretinib; first compound 1 µM)	relative viability ([1]; first compound 0.253 µM)	relative viability ([1]; first compound 0.8 µM)	relative viability ([1]; first compound 2.53 µM)	relative viability ([1]; first compound 8 µM)	relative viability ([1]; first compound 0.08 µM)
EMC-BAC-2	0.873	0.955	1.02	0.956	1.02	1.22	1.1	1.15	0.963	1.06
LK-2	1.19	1.3	1.4	1.13	1.22	0.958	0.901	–	1.46	0.917
NCI-H2228	0.672	0.763	0.838	0.861	0.777	1.07	0.622	0.969	0.655	0.866
NCI-H322M	0.973	0.896	1.02	0.935	0.948	1.12	1.19	1.29	1.12	1.19
NCI-H1993	0.864	0.862	0.828	0.638	0.742	0.718	0.818	0.775	0.793	0.724
NCI-H2170	1.05	1.04	1.16	1.02	0.994	0.575	0.538	0.545	0.426	0.631
LXF-289	0.792	0.965	0.951	1.01	0.988	0.921	0.939	0.908	0.822	0.944
NCI-H2405	0.943	1.02	0.98	0.963	1.05	0.802	0.655	0.883	0.673	0.732
HCC-44	–	–	–	–	–	0.728	0.709	0.749	0.813	0.759
LCLC-103H	0.743	0.684	0.773	0.703	0.735	–	–	–	–	–
ABC-1	0.93	1.07	1.21	1.05	1	–	–	–	–	–
NCI-H661	0.945	1.05	1.04	0.95	0.965	–	–	–	–	–
NCI-H1563	0.989	0.932	0.87	0.877	0.895	–	–	–	–	–
NCI-H1792	–	–	–	–	–	0.469	0.537	0.515	0.657	0.513
NCI-H358	0.769	0.81	0.784	0.625	0.591	–	–	–	–	–
NCI-H1623	0.771	0.739	0.771	0.707	0.735	–	–	–	–	–
SW 900	0.757	0.846	1.04	0.798	1.03	–	–	–	–	–

Source: the supplement of paper PMC10307832
